Laboratory results as given in patent US10683292B2, “Purine and 3-deazapurine analogues as choline kinase inhibitors” (NERVIANO MEDICAL SCIENCES S.R.L., priority 2016, dated 2020).
Where a name gives a salt, the structure may show the parent alone. Read-outs that look alike come from different tables or passages of the source.

Assays:
hChoKβ FL = biological target: T1, hChoKβ FL (Homo sapiens, UniProt Q9Y259); assay: Biochemical kinase inhibition assay (Kinase-Glo Luminescent Kinase Assay) on hChoKβ FL; conditions: ATP 5 μM, choline 20 μM, 60 minutes at rt; read-out: IC50 ChoKβ
T1 construct: hChoKβ full length (FL), corresponding to aminoacids 2-395; GST (N, cleaved yes); Prescission Protease recognition site (N, cleaved yes); made in house; host or cells: Escherichia coli BL21pLysS (DE3)
Description: (§1) The biochemical activity of compounds against Δ49N-ChoKα and ChoKβ FL were determined using the Kinase-Glo™ Luminescent Kinase Assay (Promega cat. V6711).
(§2) Compounds were 3-fold serially diluted from 10 to 0.0005 μM, then incubated for 60 minutes at rt in the presence of ATP 5 μM, choline (5 μM for ChoKα and 20 μM for ChoKβ) and enzyme in a final volume of 19 μL of kinase buffer (50 mM Hepes pH 7.5, 10 mM MgCl2, 1 mM DTT, 3 μM Na3VO4 and 0.2 mg/mL BSA). The final concentration of DMSO was 1%.
(§3) At the end of the incubation, an amount of 19 μL of KinaseGlo Reagent was added to each well to stop the reaction and after 30 minutes the luminescence signal was measured using ViewLux reader (Perkin Elmer).
(§4) The data per each molecule are analyzed by an internally customized version of the SW package “Assay Explorer” which provides sigmoidal fittings of the ten-dilution curves for IC50 determination using a 4 parameter logistic equation: y=bottom+(top−bottom)/(1+10^((log IC50−x)*slope)) where x is the logarithm of the inhibitor concentration, y is the response; y starts at bottom and goes to top with a sigmoid shape.

Δ49N-hChoKα = biological target: T2, Δ49N-hChoKα (Homo sapiens, UniProt P35790); assay: Biochemical kinase inhibition assay (Kinase-Glo Luminescent Kinase Assay) on Δ49N-hChoKα
T2 construct: cDNA fragment 362-1534, corresponding to aminoacids 50-457; GST (N, cleaved yes); Prescission Protease recognition site (N, cleaved yes); made in house; host or cells: Escherichia coli BL21pLysS (DE3)
Description: as §1, §2, §3, §4

[1] = test system: MDA-MB-468 breast cancer cell line; assay: Phosphocholine determination assay (mechanism of action in cells), cell extracts; format: cell-based; conditions: 24 h
Description: Phosphocholine Determination Assay (Mechanism of Action in Cells)
After 24 h, fresh medium and a compound of general formula (I) were added for further 24 h. At the end of the treatment, the cells were trypsinised, counted and the diameter was determined using a Coulter Counter (Multisizer 3, Beckman). […] Then, 0.7 mL ice-cold absolut EtOH were added (final ratio EtOH/H2O 70:30, v/v). After 24 h at −20° C. the samples were sonicated and centrifuged at 14,000×g for 30 minutes.
Phosphocholine concentration levels were assessed in the supernatants using an Ultra High Pressure Liquid Chromatography system (UPLC®, Waters) coupled with a triple quadrupoles mass spectrometer (TQD, Waters) operating in single reaction monitoring mode (SRM). Analyses were performed using Acquity HSS T3 column 2.1×50 mm column, 1.8 μm particle size. […] Waters TQD triple quad mass spectrometer was equipped with an electrospray ion source operating in the positive mode. Source parameters were set as follows: desolvation gas flow 1000 L/h, cone gas flow 50 L/h; collision gas flow 0.2 mL/min; source temperature 130° C.; desolvation temperature 450° C. Dimethyl glicine (DMG) was added to samples as internal standard at 100 μM final concentration. […] The concentration of PCho in the sample was normalized to the total volume of cells (number cells×volume of single cell considered like a sphere).

[2] = ATP 5 μM, choline 5 μM, 60 minutes at rt, read-out: IC50 ChoKα

T1 sequence (Q9Y259 2-395): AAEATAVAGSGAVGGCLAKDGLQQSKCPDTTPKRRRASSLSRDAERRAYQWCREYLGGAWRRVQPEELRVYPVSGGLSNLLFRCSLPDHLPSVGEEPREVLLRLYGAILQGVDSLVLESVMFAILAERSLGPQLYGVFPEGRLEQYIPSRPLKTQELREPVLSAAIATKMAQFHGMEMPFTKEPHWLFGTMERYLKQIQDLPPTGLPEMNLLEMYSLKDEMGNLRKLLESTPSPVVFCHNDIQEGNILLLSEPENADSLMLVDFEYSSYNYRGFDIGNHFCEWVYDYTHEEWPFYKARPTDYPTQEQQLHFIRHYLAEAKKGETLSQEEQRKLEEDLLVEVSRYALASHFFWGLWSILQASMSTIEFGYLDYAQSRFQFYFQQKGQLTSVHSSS
T2 sequence (P35790 50-457, stated change not applied): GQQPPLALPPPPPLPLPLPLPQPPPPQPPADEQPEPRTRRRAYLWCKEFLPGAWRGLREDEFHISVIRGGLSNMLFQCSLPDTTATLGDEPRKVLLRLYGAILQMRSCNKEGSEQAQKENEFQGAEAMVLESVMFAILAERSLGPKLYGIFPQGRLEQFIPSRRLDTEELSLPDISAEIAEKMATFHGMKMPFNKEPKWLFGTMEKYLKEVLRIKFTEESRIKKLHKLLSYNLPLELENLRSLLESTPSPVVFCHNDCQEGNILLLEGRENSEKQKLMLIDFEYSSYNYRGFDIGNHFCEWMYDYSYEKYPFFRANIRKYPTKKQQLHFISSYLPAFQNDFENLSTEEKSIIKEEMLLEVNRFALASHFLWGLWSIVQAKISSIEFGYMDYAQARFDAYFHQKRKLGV

Structure (SMILES): CN(c1nc(CC(N)=O)cs1)C(=O)[C@H]1CC[C@@H](n2cnc3c(N)nc(Cl)nc32)CC1 [cpd 164, cis-4-(6-amino-2-chloro-9H-purin-9-yl)-N-[4-(2-amino-2-oxoethyl)-1,3-thiazol-2-yl]-N-methylcyclohexanecarboxamide]
- IC50 (hChoKβ FL): > 10000 nM
- IC50 (Δ49N-hChoKα; [2]): 70 nM

Structure (SMILES): CN(C)c1ccc2nc(NC(=O)[C@H]3CC[C@@H](n4cnc5c(N)nc(Cl)nc54)CC3)sc2c1 [cpd 165, cis-4-(6-amino-2-chloro-9H-purin-9-yl)-N-[6-(dimethylamino)-1,3-benzothiazol-2-yl]cyclohexanecarboxamide]
- IC50 (hChoKβ FL): > 10000 nM
- IC50 (Δ49N-hChoKα; [2]): 60 nM

Structure (SMILES): Nc1nc(Cl)nc2c1ncn2[C@H]1CC[C@@H](C(=O)Nc2nc3cc(F)c(F)cc3s2)CC1 [cpd 168, cis-4-(6-amino-2-chloro-9H-purin-9-yl)-N-(5,6-difluoro-1,3-benzothiazol-2-yl)cyclohexanecarboxamide]
- IC50 (hChoKβ FL): > 10000 nM
- IC50 (Δ49N-hChoKα; [2]): 45 nM

Structure (SMILES): CC(C)(C)OC(=O)N1CCc2nc(NC(=O)[C@H]3CC[C@@H](n4cnc5c(N)nc(Cl)nc54)CC3)sc2C1 [cpd 169, tert-butyl 2-({[cis-4-(6-amino-2-chloro-9H-purin-9-yl)cyclohexyl]carbonyl}amino)-6,7-dihydro[1,3]thiazolo[5,4-c]pyridine-5(4H)-carboxylate]
- IC50 (hChoKβ FL): 5550 nM
- IC50 (Δ49N-hChoKα; [2]): 52 nM

Structure (SMILES): COc1nc(N)c2ncn([C@H]3CC[C@@H](C(=O)Nc4nc5ccc(F)cc5s4)CC3)c2n1 [cpd 170, cis-4-(6-amino-2-methoxy-9H-purin-9-yl)-N-(6-fluoro-1,3-benzothiazol-2-yl)cyclohexanecarboxamide]
- IC50 (hChoKβ FL): > 10000 nM
- IC50 (Δ49N-hChoKα; [2]): 54 nM

Structure (SMILES): Nc1nc(Cl)nc2c1ncn2[C@H]1CC[C@@H](C(=O)Nc2nc3cc(F)c(F)c(F)c3s2)CC1 [cpd 171, cis-4-(6-amino-2-chloro-9H-purin-9-yl)-N-(5,6,7-trifluoro-1,3-benzothiazol-2-yl)cyclohexanecarboxamide]
- IC50 (hChoKβ FL): 5800 nM
- IC50 (Δ49N-hChoKα; [2]): 105 nM

Structure (SMILES): COC(=O)Cc1ccc2nc(NC(=O)[C@H]3CC[C@@H](n4cnc5c(N)nc(Cl)nc54)CC3)sc2c1 [cpd 174, methyl [2-({[cis-4-(6-amino-2-chloro-9H-purin-9-yl)cyclohexyl]carbonyl}amino)-1,3-benzothiazol-6-yl]acetate]
- IC50 (hChoKβ FL): > 10000 nM
- IC50 (Δ49N-hChoKα; [2]): 41 nM

Structure (SMILES): Nc1nc(Cl)nc2c1ncn2[C@H]1CC[C@@H](C(=O)Nc2nc3ccc(Br)cc3s2)CC1 [cpd 175, cis-4-(6-amino-2-chloro-9H-purin-9-yl)-N-(6-bromo-1,3-benzothiazol-2-yl)cyclohexanecarboxamide]
- IC50 (hChoKβ FL): > 10000 nM
- IC50 (Δ49N-hChoKα; [2]): 49 nM

Structure (SMILES): Nc1nc(Cl)nc2c1ncn2[C@H]1CC[C@@H](C(=O)Nc2nc3ccc(CC(=O)O)cc3s2)CC1 [cpd 176, [2-({[cis-4-(6-amino-2-chloro-9H-purin-9-yl)cyclohexyl]carbonyl}amino)-1,3-benzothiazol-6-yl]acetic acid]
- IC50 (hChoKβ FL): 4020 nM
- IC50 (Δ49N-hChoKα; [2]): 34 nM

Structure (SMILES): CN1CCc2nc(NC(=O)[C@H]3CC[C@@H](n4cnc5c(N)nc(F)nc54)CC3)sc2C1 [cpd 179, cis-4-(6-amino-2-fluoro-9H-purin-9-yl)-N-(5-methyl-4,5,6,7-tetrahydro[1,3]thiazolo[5,4-c]pyridin-2-yl)cyclohexanecarboxamide]
- [Phosphocholine] in MDA-MB-468 cell extracts ([1]; compound 0.08 μM): 6.40 mM
- [Phosphocholine] in MDA-MB-468 cell extracts ([1]; compound 0.4 μM): 3.27 mM
- [Phosphocholine] in MDA-MB-468 cell extracts ([1]; compound 2 μM): 0.69 mM

Structure (SMILES): Nc1nc(Cl)nc2c1ncn2[C@H]1CC[C@@H](C(=O)Nc2nc3ccc(OC(F)F)cc3s2)CC1 [cpd 180, cis-4-(6-amino-2-chloro-9H-purin-9-yl)-N-[6-(difluoromethoxy)-1,3-benzothiazol-2-yl]cyclohexanecarboxamide]
- IC50 (hChoKβ FL): 6800 nM
- IC50 (Δ49N-hChoKα; [2]): 23 nM

Structure (SMILES): Nc1nc(Cl)nc2c1ncn2[C@H]1CC[C@@H](C(=O)Nc2nc3ccc(OC(F)(F)F)cc3s2)CC1 [cpd 181, cis-4-(6-amino-2-chloro-9H-purin-9-yl)-N-[6-(trifluoromethoxy)-1,3-benzothiazol-2-yl]cyclohexanecarboxamide]
- IC50 (hChoKβ FL): > 10000 nM
- IC50 (Δ49N-hChoKα; [2]): 66 nM

Structure (SMILES): CC(=O)Nc1ccc2nc(NC(=O)[C@H]3CC[C@@H](n4cnc5c(N)nc(Cl)nc54)CC3)sc2c1 [cpd 183, cis-N-[6-(acetylamino)-1,3-benzothiazol-2-yl]-4-(6-amino-2-chloro-9H-purin-9-yl)cyclohexanecarboxamide]
- IC50 (hChoKβ FL): 1990 nM
- IC50 (Δ49N-hChoKα; [2]): 17 nM

Structure (SMILES): Nc1nc(Cl)nc2c1ncn2[C@H]1CC[C@@H](C(=O)Nc2nc3cc4c(cc3s2)OCO4)CC1 [cpd 186, cis-4-(6-amino-2-chloro-9H-purin-9-yl)-N-([1,3]dioxolo[4,5-f][1,3]benzothiazol-6-yl)cyclohexanecarboxamide]
- IC50 (hChoKβ FL): 5470 nM
- IC50 (Δ49N-hChoKα; [2]): 43 nM

Structure (SMILES): CC(C)(C)OC(=O)N1[C@H]2CC[C@@H]1c1sc(NC(=O)[C@H]3CC[C@@H](n4cnc5c(N)nc(Cl)nc54)CC3)nc1C2 [cpd 187, tert-butyl (5S,8R)-2-({[cis-4-(6-amino-2-chloro-9H-purin-9-yl)cyclohexyl]carbonyl}amino)-5,6,7,8-tetrahydro-4H-5,8-epiminocyclohepta[d][1,3]thiazole-9-carboxylate]
- IC50 (hChoKβ FL): 5630 nM
- IC50 (Δ49N-hChoKα): 29 nM

Structure (SMILES): Nc1nc(Cl)nc2c1ncn2[C@H]1CC[C@@H](C(=O)Nc2nc3c(s2)CC(F)(F)CC3)CC1 [cpd 188, cis-4-(6-amino-2-chloro-9H-purin-9-yl)-N-(6,6-difluoro-4,5,6,7-tetrahydro-1,3-benzothiazol-2-yl)cyclohexanecarboxamide]
- IC50 (hChoKβ FL): > 10000 nM
- IC50 (Δ49N-hChoKα; [2]): 9 nM

Structure (SMILES): Nc1nc(Cl)nc2c1ncn2[C@H]1CC[C@@H](C(=O)Nc2nc3c(s2)[C@H]2CC[C@@H](C3)N2)CC1 [cpd 189, cis-4-(6-amino-2-chloro-9H-purin-9-yl)-N-[(5S,8R)-5,6,7,8-tetrahydro-4H-5,8-epiminocyclohepta[d][1,3]thiazol-2-yl]cyclohexanecarboxamide hydrochloride]
- IC50 (hChoKβ FL): > 10000 nM
- IC50 (Δ49N-hChoKα): 27 nM

Structure (SMILES): Nc1nc(F)nc2c1ncn2[C@H]1CC[C@@H](C(=O)Nc2nc3c(s2)CC(F)(F)CC3)CC1 [cpd 191, cis-4-(6-amino-2-fluoro-9H-purin-9-yl)-N-(6,6-difluoro-4,5,6,7-tetrahydro-1,3-benzothiazol-2-yl)cyclohexanecarboxamide]
- IC50 (hChoKβ FL): > 10000 nM
- IC50 (Δ49N-hChoKα; [2]): 11 nM

Structure (SMILES): CC1(C)Cc2nc(NC(=O)[C@H]3CC[C@@H](n4cnc5c(N)nc(Cl)nc54)CC3)sc2CO1 [cpd 195, cis-4-(6-amino-2-chloro-9H-purin-9-yl)-N-(6,6-dimethyl-6,7-dihydro-4H-pyrano[4,3-d][1,3]thiazol-2-yl)cyclohexanecarboxamide]
- IC50 (hChoKβ FL): 6110 nM
- IC50 (Δ49N-hChoKα; [2]): 24 nM

Structure (SMILES): NC(=O)CN1CCc2nc(NC(=O)[C@H]3CC[C@@H](n4cnc5c(N)nc(Cl)nc54)CC3)sc2C1 [cpd 196, cis-4-(6-amino-2-chloro-9H-purin-9-yl)-N-[5-(2-amino-2-oxoethyl)-4,5,6,7-tetrahydro[1,3]thiazolo[5,4-c]pyridin-2-yl]cyclohexanecarboxamide]
- IC50 (hChoKβ FL): > 10000 nM
- IC50 (Δ49N-hChoKα; [2]): 26 nM

Structure (SMILES): COc1cccc(NC(=O)N[C@H]2CC[C@@H](n3cnc4c(N)nc(Cl)nc43)CC2)c1 [cpd 197, 1-[cis-4-(6-amino-2-chloro-9H-purin-9-yl)cyclohexyl]-3-(3-methoxyphenyl)urea]
- IC50 (hChoKβ FL): 6090 nM
- IC50 (Δ49N-hChoKα; [2]): 306 nM

Structure (SMILES): CN1CCc2nc(NC(=O)[C@H]3CC[C@@H](n4cnc5c(N)nc(I)nc54)CC3)sc2C1 [cpd 198, cis-4-(6-amino-2-iodo-9H-purin-9-yl)-N-(5-methyl-4,5,6,7-tetrahydro[1,3]thiazolo[5,4-c]pyridin-2-yl)cyclohexanecarboxamide]
- IC50 (hChoKβ FL): > 10000 nM
- IC50 (Δ49N-hChoKα; [2]): 33 nM

Structure (SMILES): CN1CCc2nc(NC(=O)[C@H]3CC[C@@H](n4cnc5c(N)nc(C#C[Si](C)(C)C)nc54)CC3)sc2C1 [cpd 199, cis-4-{6-amino-2-[(trimethylsilyl)ethynyl]-9H-purin-9-yl}-N-(5-methyl-4,5,6,7-tetrahydro[1,3]thiazolo[5,4-c]pyridin-2-yl)cyclohexanecarboxamide]
- IC50 (hChoKβ FL): > 10000 nM
- IC50 (Δ49N-hChoKα): 67 nM

Structure (SMILES): Nc1nc(F)nc2c1ncn2[C@H]1CC[C@@H](C(=O)Nc2nc3c(s2)COCC3)CC1 [cpd 200, cis-4-(6-amino-2-fluoro-9H-purin-9-yl)-N-(6,7-dihydro-4H-pyrano[4,3-d][1,3]thiazol-2-yl)cyclohexanecarboxamide]
- IC50 (hChoKβ FL): > 10000 nM
- IC50 (Δ49N-hChoKα; [2]): 24 nM

Structure (SMILES): C#Cc1nc(N)c2ncn([C@H]3CC[C@@H](C(=O)Nc4nc5c(s4)CN(C)CC5)CC3)c2n1 [cpd 201, cis-4-(6-amino-2-ethynyl-9H-purin-9-yl)-N-(5-methyl-4,5,6,7-tetrahydro[1,3]thiazolo[5,4-c]pyridin-2-yl)cyclohexanecarboxamide]
- IC50 (hChoKβ FL): > 10000 nM
- IC50 (Δ49N-hChoKα; [2]): 19 nM

Structure (SMILES): Cc1csc(NC(=O)[C@H]2CC[C@@H](n3cnc4c(N)nccc43)CC2)n1 [cpd 204, cis-4-(4-amino-1H-imidazo[4,5-c]pyridin-1-yl)-N-(4-methyl-1,3-thiazol-2-yl)cyclohexanecarboxamide]
- IC50 (hChoKβ FL): > 10000 nM
- IC50 (Δ49N-hChoKα; [2]): 1810 nM

Structure (SMILES): Nc1nc(Cl)nc2c1ncn2[C@H]1CC[C@@H](C(=O)Nc2nc3c(s2)CCCC3)CC1 [cpd 205, cis-4-(6-amino-2-chloro-9H-purin-9-yl)-N-(4,5,6,7-tetrahydro-1,3-benzothiazol-2-yl)cyclohexanecarboxamide]
- IC50 (hChoKβ FL): 5200 nM
- IC50 (Δ49N-hChoKα; [2]): 15 nM

Structure (SMILES): Nc1nc(F)nc2c1ncn2[C@H]1CC[C@@H](C(=O)Nc2nc3c(s2)CCCC3)CC1 [cpd 206, cis-4-(6-amino-2-fluoro-9H-purin-9-yl)-N-(4,5,6,7-tetrahydro-1,3-benzothiazol-2-yl)cyclohexanecarboxamide]
- IC50 (hChoKβ FL): > 10000 nM
- IC50 (Δ49N-hChoKα; [2]): 16 nM
